The values that follow come from patent US20250222066A1, “COMPOSITIONS AND METHODS OF TREATING, PREVENTING OR INHIBITING A FACULTATIVE ANAEROBE INFECTION” (UNIVERSITY OF UTAH RESEARCH FOUNDATION, priority 2022, published 2025).

Test [1] deals with S. aureus ATCC 6538 biofilms. Put plainly: Hypoxyprobe immunohistochemical staining of pimonidazole adducts in biofilms. It counts as cell-based. The settings on record: 0.06 mg/ml pimonidazole, 5 h. From the text:
Further, the Hypoxyprobe™ immunohistochemistry kit was used to identify regions of the biofilm that might be hypoxic, and to identify regions with nitro-reductase activity. At the core of the Hypoxyprobe™ kit is the use of the nitroimidazole pimonidazole; it is used to treat, usually animal tissues, but in this case bacterial tissues (biofilms) while in homeostasis prior to fixation, embedment, sectioning, and staining (see structures FIGS. 5E-F). The nitro group on pimonidazole, like that on metronidazole, is reductively activated in hypoxic mammalian tissues by reaction with catalytic nitro-reductase enzymes; it then forms indiscriminate adducts with inter-cellular thiol groups. In the presence of oxygen, the reduced nitro group in pimonidazole (and metronidazole) rapidly reacts with oxygen thereby cycling back to the parent compound. The Hypoxyprobe™ kit contains a primary antibody against these intercellular pimonidazole adducts. Successful immunohistochemical staining of pimonidazole adducts in the biofilm core indicates two important things. First, it would show nitro-reductase activity in the biofilm, and second it would be direct evidence for […] oxygen tension for a nitroimidazole prodrug radical to persist and react with critical cellular components. […]

Another test concerns S. aureus biofilms. Kind of test: Radical-scavenger edaravone protection of biofilms from metronidazole (FIG. 6). It counts as cell-based. Conditions: 0-2 mg/ml edaravone with 0.25 mg/ml nafcillin and 4 mg/ml metronidazole, 24 h. Here is the method:
. S. aureus biofilms grown using a CDC biofilm reactor and treated with 2 ml solutions of CAMHB in 0.25 mg/ml nafcillin (serving as a bacteriostatic agent) and 4 mg/ml metronidazole (with herein established activity against biofilms) and the indicated concentration of the potent radical-scavenger edaravone (0-2 mg/ml). After treatment, the biofilm coupons were removed from the treatment broth, rinsed and the bioburden quantified using a method of vortexing, sonicating, and serial dilution plating.
In one experiment, S. aureus biofilms were subjected to a bacteriostatic solution of nafcillin (0.25 mg/ml) and an aggressive dose of metronidazole (4 mg/ml). The coupons were divided evenly into 5 groups (n=8) which were treated with serial concentrations of the potent radical scavenger edaravone ranging from 0-2 mg/ml. […]. In a second experiment, biofilms were treated with a small sublethal dose of the nitroimidazole pimonidazole (0.06 mg/ml). Like the other nitroimidazoles, pimonidazole is reductively activated in hypoxic cells by a nitro-reductase enzyme. In hypoxia, the reduced compound indiscriminately forms adducts with cellular components including adducts with thiol groups which can be recognized with a primary antibody by immunohistochemical staining (FIG. 5A and FIG. 9A) (Masaki, Y. et al. PLOS One 11, e0161639 (2016)). […]

A further test relates to S. aureus biofilm. Put plainly: Live/dead imaging of metronidazole-treated biofilm. Conditions: 0.5 mg/ml metronidazole, 24 h. It counts as cell-based. From the text:
FIGS. 9A-B show biofilm histochemical staining. […] Staining of pimonidazole adducts in pimonidazole-treated S. aureus biofilms is localized in the core; the deepest location (darker brown region indicated by arrow) adjacent to the collagen substrate. Regions where oxygen tension is insufficiently low for pimonidazole adduct formation is shown (arrow head; lighter brown region). […] Viable bacteria (green) resided on the biofilm surface, where oxygen and nutrients were readily available.
Next, a time-lapse confocal imaging paired with live-dead staining was used to observe the location of metronidazole-induced cell death.

Another test relates to K. pneumoniae. Kind of test: Minimum inhibitory concentration (MIC) assay, planktonic bacteria. It counts as cell-based, Klebsiella pneumoniae. Conditions: for MIC: Klebsiella pneumoniae, for 1:1 combinations MIC is the sum of both compounds. Here is the method: (§1) For comparison to these biofilm tests with adjunctive metronidazole, the MIC was determined for each organism and each compound tested.

The test system of a further test is MRSA USA300. The test is described as above. The settings on record: Staphylococcus aureus, for 1:1 combinations MIC is the sum of both compounds. It counts as cell-based. Here is the method:
as §1

The next test concerns P. aeruginosa. The description is as above. It counts as cell-based. Conditions: Pseudomonas aeruginosa, for 1:1 combinations MIC is the sum of both compounds. As for the experimental part:
as §1

The next test deals with A. baumannii. Described as above. It counts as cell-based. Conditions: Acinetobacter baumannii; aerobic; for 1:1 combinations MIC is the sum of both compounds. As for the experimental part:
as §1

Test [2] has as its system biofilms of a range of Gram-negative and Gram-positive organisms. Put plainly: CDC biofilm reactor test of metronidazole combinations across species (FIG. 1). It counts as cell-based. The settings on record: paired with gentamicin or levofloxacin (S. epidermidis); 0.5-1 mg/ml total, 24 h. As for the experimental part:
(§2) For determining the broad-spectrum utility of metronidazole, respective bacterial species were grown into stationary biofilms using a 2- or 3-day species-specific growth protocol in a CDC biofilm reactor on standard 0.5 in polycarbonate coupons. Each reactor holds up to 24 coupons/samples with adherent biofilms. Bacterial bioburden, represented as colony forming units (CFUs), from five reactor samples/coupons (n=5) were quantified by first dispersing the bacterial biofilms in 2 ml of PBS by standardized vortex-sonication technique and serial-dilution plating. Importantly, this quantification technique provides bioburden data with logarithmic sensitivity. […] The gray shaded regions represent standard deviations.
(§3) Three groups of 5 coupons/samples (n=5) were placed into 2 ml treatments either containing 0.5-1 mg/ml of gentamicin, metronidazole, or combinations thereof (in CAMHB) and incubated for 24 h at 37° C. Importantly, the total antibiotic concentration (mg/ml) was fixed for each sample to enable assessment of compound synergy.
After the 24 h treatment, the bacteria adhered to coupons were quantified by rinsing the samples very gently in excess PBS followed by vortexing and sonicating to disperse the biofilm in 2 ml PBS and subsequent serial-dilution plating. The bioburden of the adhered bacteria is represented by the blue bars in FIG. 1. […]

Test [3] concerns S. aureus ATCC 6538 biofilms. Kind of test: CDC biofilm reactor coupons, 24 h antibiotic treatment, bioburden by serial dilution plating. It counts as cell-based. The settings on record: 24 h treatment, FIG. 1 and FIG. 7. As for the experimental part: as §2, §3
After the 24 h treatment, the bacteria adhered to coupons were quantified by rinsing the samples very gently in excess PBS followed by vortexing and sonicating to disperse the biofilm in 2 ml PBS and subsequent serial-dilution plating. The bioburden of the adhered bacteria is represented by the blue bars in FIG. 1. […] Broth bioburden is represented by the red bars in FIG. 1.
Twelve hypoxia activated prodrugs from three categories were tested: nitroimidazoles (same class as metronidazole), nitrofurans, and anti-tumor agents.
To test each compound, the contents of an entire CDC-biofilm reactor (24 coupons/biofilm samples) were used (see FIG. 2 and FIG. 3). […] Using the methods described above, 4 reactor samples/coupons served as reactor controls. The remaining 20 samples/coupons were split into 4 treatment groups of 5 samples each (n=5).
For testing against S. aureus biofilms, the compounds were prepared at a concentration of 1 mM in CAMHB; coupons were treated in 2 ml for 24 h. Compounds were intentionally prepared in units of molarity rather than the more common weight/volume ratios of clinicians.
This choice was made for two reasons.
Two of the treatment groups were the same for each test: one in 1 mM nafcillin (a β-lactam antibiotic) and a second in 1 mM gentamicin. […] For comparison for most compounds 1 mM ranges from ˜0.15-0.5 mg/ml, 1 or 2 Log 2 dilutions below tests in FIG. 1. […] The other compounds were tested at the same concentrations.
Quantification of the post-treatment residual bioburden was performed by dispersing biofilm bacteria into the 2 ml treatments with its constituent bacteria by vortexing, and sonicating. […] The pelleted bacteria were resuspended and measured by the serial dilution plating technique. Thus, the values presented in FIGS. 2, 3 and 4 represent the cumulative change in bioburden from the surface-attached biofilms and bacteria in the treatments.

The test system of a further test is S. aureus. Put plainly: Minimum inhibitory concentration (MIC) assay, planktonic bacteria. It counts as cell-based. Conditions: for MIC: Staphylococcus aureus.
Description: Shortcomings of clinical antibiotic susceptibility assays. The antibiotic-susceptibility assays used to guide clinical treatment and prophylaxis rely on actively-dividing planktonic bacteria (Williams, D. L. & Costerton, J. W. J Biomed Mat Res B 100, 1163-1169 (2011)). Among the assays performed by clinical reference laboratories are the minimum inhibitory concentration (MIC), and disk diffusion (Kirby-Bauer) assays. The ubiquity of these assays is owed to the fact that they are high throughput, relatively quick to perform, repeatable, and have short turnaround times. They inform clinicians regarding which antibiotic are applicable for a given infection from a simple site swab, blood, or aspirate sample. […] Thus, when a compound, such as metronidazole performs poorly in an MIC assay, a physician would be thoroughly dissuaded from using it. Likewise, in drug-development, a high MIC value would exclude potentially useful anti-biofilm agents from candidate drug libraries. […] Using orthodox clinical methodology, there would be no basis to administer metronidazole in the treatment of a S. aureus-related infections, despite its exceptional efficacy against bacterial biofilms of the same isolates. The MIC assay fails to provide any information about susceptibility profiles of bacteria that reside in the biofilm phenotype.
as §1

The next test deals with E. coli. The description is as above. It counts as cell-based, Escherichia coli. The settings on record: Escherichia coli, for 1:1 combinations MIC is the sum of both compounds. Here is the method:
as §1

The test system of another test is S. epidermidis. The description is as above. It counts as cell-based, Staphylococcus epidermidis. Conditions: Staphylococcus epidermidis, for 1:1 combinations MIC is the sum of both compounds. As for the experimental part:
as §3, §1

[4] abbreviates: anaerobic, read-out: Anaerobic MIC.

Each structure is given as a SMILES string. “Also recorded” adds a separate entry of the source. Where two headings read alike, the source gives them in different places.

In the case of `O=[N+]([O-])c1nccn1CC(O)CN1CCCCC1` (stereo not drawn) [pimonidazole], the “location of pimonidazole adducts (nitro-reductase activity, hypoxia)” value in test [1] was “adducts banded throughout the deepest parts of the biofilm core”.
Turning to `CC1=NN(c2ccccc2)C(=O)C1` [edaravone], the “effect on the killing of biofilms by metronidazole” value in the test with S. aureus biofilms is listed as “neutralized the killing-effect of metronidazole in a dose dependent manner; also recorded: proportionally negates the killing power of metronidazole; also recorded: proportionally negate killing effects of metronidazole”.
As for `Cc1ncc([N+](=O)[O-])n1CCO` [Metronidazole, metronidazole], the “location of dead and viable bacteria by live/dead staining” value in the test on S. aureus biofilm was “an abundance of dead and dying bacteria in the biofilm core contrasted with viable bacteria on the biofilm surface; also recorded: Dead cells (red) resided deep within the biofilm core”. The MIC is greater than 2500 µg/mL in the test on K. pneumoniae (aerobic, read-out: Aerobic MIC); 1250 µg/mL in the test with K. pneumoniae (setting [4]); 1250 µg/mL in the test with MRSA USA300 (aerobic, read-out: Aerobic MIC); 1250 µg/mL with MRSA USA300 (setting [4]); greater than 2500 µg/mL with P. aeruginosa (aerobic, read-out: Aerobic MIC); greater than 2500 µg/mL with P. aeruginosa (setting [4]). Moreover, the MIC with A. baumannii is greater than 2500 µg/mL; in the test with S. aureus (aerobic, for 1:1 combinations MIC is the sum of both compounds, read-out: Aerobic MIC) it was 2500 µg/mL; in the test on S. aureus (anaerobic, for 1:1 combinations MIC is the sum of both compounds, read-out: Anaerobic MIC), greater than 2500 µg/mL; with S. aureus (isolate used in biofilm tests, read-out: MIC against S. aureus), greater than 2500 µg/mL; with E. coli (aerobic, read-out: Aerobic MIC) it was 1250 µg/mL; with E. coli (setting [4]) it was 156 µg/mL. Also, the MIC with S. epidermidis (aerobic, read-out: Aerobic MIC) is 312 µg/mL; with S. epidermidis (setting [4]), 625 µg/mL. Also, the “reduction in MIC, anaerobic versus aerobic” value in the test on K. pneumoniae (log-phase planktonic bacteria) is “two”. Moreover, the “synergistic kill against biofilms” value in [2] is listed as “strong synergistic kill”. Besides, the antibiofilm activity result in test [3] is reported as “much greater antibiofilm activity compared to traditional antibiotics; also recorded: graded concentration-dependent effect against biofilms; also recorded: killed the otherwise difficult-to-kill persister cells embedded within the biofilm”. Also, in the test on S. aureus (FIG. 7 legend), the “effect against planktonic bacteria as indicated by the MIC” value was “little effect against planktonic bacteria”.
